The melting point is the temperature, or range, at which the solid turns liquid.

Counter-ions that a name gives are not always drawn.

Compound `[O-][n+]1nc(CCCN2CCOCC2)nc2cc3c(cc21)CC(CO)C3` (stereo not shown) (as salt: hydrochloride) [Compound 140, {3-[3-(4-Morpholinyl)propyl]-1-oxido-7,8-dihydro-6H-indeno[5,6-e][1,2,4]triazin-7-yl}methanol] gave a melting point of 210 to 212 °C.
As for `CCc1n[n+]([O-])c2cc3c(cc2[n+]1[O-])CC(CCN1CCOCC1)C3` (stereo not shown) (as salt: hydrochloride) [Compound 164, 3-Ethyl-7-[2-(4-morpholinyl)ethyl]-7,8-dihydro-6H-indeno[5,6-e][1,2,4]triazine 1,4-Dioxide], the figure is 131 to 133 °C; as for `[O-][n+]1nc(NCCCN2CCOCC2)[n+]([O-])c2cc3c(cc21)CCCC3` (as salt: hydrochloride) [Compound 180, N-[3-(4-Morpholinyl)propyl]-6,7,8,9-tetrahydronaphtho[2,3-e][1,2,4]triazin-3-amine 1,4-Dioxide], 182 to 185 °C.
`CCN1Cc2cc3c(cc2C1)[n+]([O-])c(N)n[n+]3[O-]` (as salt: hydrochloride) [Compound 250, 7-Ethyl-7,8-dihydro-6H-[1,2,4]triazino[5,6-f]isoindol-3-amine 1,4-Dioxide]: the melting point was determined as 230 °C.
To `Nc1nc2ccc3c(c2[n+]([O-])n1)CCC3` [Compound 4, 8,9-Dihydro-7H-indeno[5,4-e][1,2,4]triazin-3-amine 1-Oxide] belongs 270 to 274 °C; to `CN(C)CCNc1nc2ccc3c(c2[n+]([O-])n1)CCC3` [Compound 6, N^1,N^1-Dimethyl-N^2-(1-oxido-8,9-dihydro-7H-indeno[5,4-e][1,2,4]triazin-3-yl)-1,2-ethanediamine], 186 to 190 °C; to `CCN(CC)CCNc1nc2ccc3c(c2[n+]([O-])n1)CCC3` [Compound 8, N^1,N^1-Diethyl-N^2-(1-oxido-8,9-dihydro-7H-indeno[5,4-e][1,2,4]triazin-3-yl)-1,2-ethanediamine], 126 to 130 °C.
As for `CCCN(CCC)CCNc1nc2ccc3c(c2[n+]([O-])n1)CCC3` [Compound 10, N^1-(1-Oxido-8,9-dihydro-7H-indeno[5,4-e][1,2,4]triazin-3-yl)-N^2,N^2-dipropyl-1,2-ethanediamine], the figure is 148 to 151 °C.
The compound `[O-][n+]1nc(NCCN2CCCCC2)nc2ccc3c(c21)CCC3` [Compound 12, N-[2-(1-Piperidinyl)ethyl]-8,9-dihydro-7H-indeno[5,4-e][1,2,4]triazin-3-amine 1-Oxide] displayed a melting point of 152 to 155 °C.
To `Nc1nc2cc3c(cc2[n+]([O-])n1)CCC3` [Compound 19, 7,8-Dihydro-6H-indeno[5,6-e][1,2,4]triazin-3-amine 1-Oxide] belongs 270 to 272 °C.
As for `CN(C)CCNc1nc2cc3c(cc2[n+]([O-])n1)CCC3` [Compound 22, N^1,N^1-Dimethyl-N^2-(1-oxido-7,8-dihydro-6H-indeno[5,6-e][1,2,4]triazin-3-yl)-1,2-ethanediamine], the figure is 122 to 124 °C; as for `[O-][n+]1nc(NCCO)nc2cc3c(cc21)CCC3` [Compound 24, 2-[(1-Oxido-7,8-dihydro-6H-indeno[5,6-e][1,2,4]triazin-3-yl)amino]ethanol], 222 to 224 °C.
As for `CCN(CC)CCNc1nc2cc3c(cc2[n+]([O-])n1)CCC3` [Compound 26, N^1-(1-Oxido-7,8-dihydro-6H-indeno[5,6-e][1,2,4]triazin-3-yl)-N^2,N^2-diethyl-1,2-ethanediamine], the figure is 109 to 112 °C.
In turn, `CCCN(CCC)CCNc1nc2cc3c(cc2[n+]([O-])n1)CCC3` [Compound 28, N^1-(1-Oxido-7,8-dihydro-6H-indeno[5,6-e][1,2,4]triazin-3-yl)-N^2,N^2-dipropyl-1,2-ethanediamine] showed a melting point of 95 to 97 °C.
As for `COCCN(C)CCNc1nc2cc3c(cc2[n+]([O-])n1)CCC3` [Compound 30, N^1-(1-Oxido-7,8-dihydro-6H-indeno[5,6-e][1,2,4]triazin-3-yl)-N^2-(2-methoxyethyl)-N^2-methyl-1,2-ethanediamine], the figure is 107 to 110 °C; as for `COCCCN(C)CCNc1nc2cc3c(cc2[n+]([O-])n1)CCC3` [Compound 32, N^1-(3-Methoxypropyl)-N^1-methyl-N^2-(1-oxido-7,8-dihydro-6H-indeno[5,6-e][1,2,4]triazin-3-yl)-1,2-ethanediamine], 41 to 42 °C.
In the case of `COC1CN(CCNc2nc3cc4c(cc3[n+]([O-])n2)CCC4)C1` [Compound 34, N-[2-(3-Methoxy-1-azetidinyl)ethyl]-7,8-dihydro-6H-indeno[5,6-e][1,2,4]triazin-3-amine 1-Oxide], the melting point lay in the range of 139 to 141 °C.
Regarding `[O-][n+]1nc(NCCN2CCCCC2)nc2cc3c(cc21)CCC3` [Compound 36, N-[2-(1-Piperidinyl)ethyl]-7,8-dihydro-6H-indeno[5,6-e][1,2,4]triazin-3-amine 1-Oxide], the melting point lay in the range of 151 to 153 °C.
As for `CC1CCCC(C)N1CCNc1nc2cc3c(cc2[n+]([O-])n1)CCC3` (stereo not shown) [Compound 38, N-[2-(2,6-Dimethyl-1-piperidinyl)ethyl]-7,8-dihydro-6H-indeno[5,6-e][1,2,4]triazin-3-amine 1-Oxide], the figure is 173 to 175 °C; as for `COC1CCCN(CCNc2nc3cc4c(cc3[n+]([O-])n2)CCC4)C1` (stereo not shown) [Compound 40, N-[2-(3-Methoxy-1-piperidinyl)ethyl]-7,8-dihydro-6H-indeno[5,6-e][1,2,4]triazin-3-amine 1-Oxide], 123 to 124 °C.
`COC1CCN(CCNc2nc3cc4c(cc3[n+]([O-])n2)CCC4)CC1` [Compound 42, N-[2-(4-Methoxy-1-piperidinyl)ethyl]-7,8-dihydro-6H-indeno[5,6-e][1,2,4]triazin-3-amine 1-Oxide]: the melting point lay within 131 to 133 °C.
To `[O-][n+]1nc(NCCN2CCOCC2)nc2cc3c(cc21)CCC3` [Compound 44, N-[2-(4-Morpholinyl)ethyl]-7,8-dihydro-6H-indeno[5,6-e][1,2,4]triazin-3-amine 1-Oxide] belongs 178 to 179 °C.
Consider `[O-][n+]1nc(NCCN2CCCCCC2)nc2cc3c(cc21)CCC3` [Compound 46, N-[2-(1-Azepanyl)ethyl]-7,8-dihydro-6H-indeno[5,6-e][1,2,4]triazin-3-amine 1-Oxide], for which the melting point lay in the range of 121 to 123 °C.
Take `[O-][n+]1nc(NCCN2CCCOCC2)nc2cc3c(cc21)CCC3` [Compound 48, N-[2-(1,4-Oxazepan-4-yl)ethyl]-7,8-dihydro-6H-indeno[5,6-e][1,2,4]triazin-3-amine 1-Oxide]: the melting point was in the range of 119 to 120 °C.
`[O-][n+]1nc(NCCCO)nc2cc3c(cc21)CCC3` [Compound 50, 3-[(1-Oxido-7,8-dihydro-6H-indeno[5,6-e][1,2,4]triazin-3-yl)amino]-1-propanol] showed a melting point of 190 to 190.5 °C.
Consider `COCCN(C)CCCNc1nc2cc3c(cc2[n+]([O-])n1)CCC3` [Compound 52, N^1-(2-Methoxyethyl)-N^1-methyl-N^3-(1-oxido-7,8-dihydro-6H-indeno[5,6-e][1,2,4]triazin-3-yl)-1,3-propanediamine], for which the melting point was in the range of 59 to 61 °C.
Turning to `COC1CN(CCCNc2nc3cc4c(cc3[n+]([O-])n2)CCC4)C1` [Compound 54, N-[3-(3-Methoxy-1-azetidinyl)propyl]-7,8-dihydro-6H-indeno[5,6-e][1,2,4]triazin-3-amine 1-Oxide], the melting point was 101 to 102 °C.
As for `N#CC1CCN(CCCNc2nc3cc4c(cc3[n+]([O-])n2)CCC4)C1` (stereo not shown) [Compound 56, 1-{3-[(1-Oxido-7,8-dihydro-6H-indeno[5,6-e][1,2,4]triazin-3-yl)amino]propyl}-3-pyrrolidinecarbonitrile], the figure is 111 to 112 °C; as for `COC1CCN(CCCNc2nc3cc4c(cc3[n+]([O-])n2)CCC4)CC1` [Compound 58, N-[3-(4-Methoxy-1-piperidinyl)propyl]-7,8-dihydro-6H-indeno[5,6-e][1,2,4]triazin-3-amine 1-Oxide], 120 to 121 °C.
As for `[O-][n+]1nc(NCCCN2CCOCC2)nc2cc3c(cc21)CCC3` [Compound 60, N-[3-(4-Morpholinyl)propyl]-7,8-dihydro-6H-indeno[5,6-e][1,2,4]triazin-3-amine 1-Oxide], the figure is 139 to 141 °C.
Take `[O-][n+]1nc(NCCCCN2CCOCC2)nc2cc3c(cc21)CCC3` [Compound 62, N-[4-(4-Morpholinyl)butyl]-7,8-dihydro-6H-indeno[5,6-e][1,2,4]triazin-3-amine 1-Oxide]: the melting point is 151 to 152 °C.
As for `[O-][n+]1ncnc2cc3c(cc21)CCC3` [Compound 64, 7,8-Dihydro-6H-indeno[5,6-e][1,2,4]triazine 1-Oxide], the figure is 130 to 131 °C.
For the compound `C=CCc1nc2cc3c(cc2[n+]([O-])n1)CCC3` [Compound 69, 3-Allyl-7,8-dihydro-6H-indeno[5,6-e][1,2,4]triazine 1-Oxide], the melting point is 60 to 61 °C.
As for `[O-][n+]1nc(CCCO)nc2cc3c(cc21)CCC3` [Compound 70, 3-(1-Oxido-7,8-dihydro-6H-indeno[5,6-e][1,2,4]triazin-3-yl)-1-propanol], the figure is 131 to 133 °C; as for `CC(C)(C)OP(=O)(OCCCc1n[n+]([O-])c2cc3c(cc2[n+]1[O-])CCC3)OC(C)(C)C` [Compound 73, 3-(3-(Di-tert-butoxyphosphoryloxy)propyl)-7,8-dihydro-6H-indeno[5,6-e][1,2,4]triazine 1,4-Dioxide], 129 to 131 °C.
Regarding `O=CCCc1nc2cc3c(cc2[n+]([O-])n1)CCC3` [Compound 75, 3-(1-oxido-7,8-dihydro-6H-indeno[5,6-e][1,2,4]triazin-3-yl)propanal], the melting point is 72 to 74 °C.
To `CC1Cc2cc3nc(N)n[n+]([O-])c3cc2C1` (stereo not shown) [Compound 94, 7-Methyl-7,8-dihydro-6H-indeno[5,6-e][1,2,4]triazin-3-amine 1-Oxide] belongs 275 to 277 °C.
